Assay results reported in patent publication US8546320B2, “Hsp9O-targeted anti-cancer chimeric peptide” (Kyoto University, priority 2008, dated 2013).
Where a SMILES comes first, the peptide text is derived from it.

Columns and labels:
Caki-1 = assay type: cell-based, human; conditions: Caki-1; for Anti-cancer activity (% relative to wild-type peptide) / Decrease in cell survival rate (% relative to wild-type peptide): wild-type peptide = 100%
Protocol: A total of 3×10^3 cells were inoculated per well on a 96 well plate and cultured in a medium containing 10% FBS for 24 hours, and incubated with 100 μl of a peptide having a gradual increase in concentration at 37° C. for 48 to 72 hours. The survival rate of the cells was measured by using WST-8 solution (Cell Count Reagent SF; Nacalai Tesque, Inc.).
(§1) Respective variant peptides were subjected to cell viability assay. Specifically, Caki-1 (American Type Culture Collection (Manassas, Va.) was inoculated in a total amount of 3×10^3 cells per well on a 96 well plate (Nunc™); the cells were cultured in a medium (DMEM (Tesque, Inc.) containing 10% FBS (fetal bovine serum; Biowest)) for 24 hours and incubated with 100 μl of a peptide having a gradual increase in concentration at 37° C. for 48 to 72 hours. The cell survival rate was measured by using WST-8 solution (Cell Count Reagent SF; Nacalai Tesque, Inc.) and compared with that of the wild-type Antp-TPR peptide.
as §1, with “medium” for “medium (DMEM (Tesque, Inc.)”, “FBS” for “FBS (fetal bovine serum; Biowest))”

cancer cells = test: Cell viability assay, summary statements on cancer cells; assay type: cell-based; conditions: for effect compared with the wild-type protein (summary of mutations): single mutation in TPR or Antp region of Antp-TPR
U937 = test: cells; assay type: cell-based, human; conditions: U937; for Cell Survival Rate (%): concentration not given; for Anti-cancer activity (% relative to wild-type peptide) / Decrease in cell survival rate (% relative to wild-type peptide): wild-type peptide = 100%
Protocol: A total of 3×10^3 cells per well were inoculated onto a 96 well plate, and incubated in a medium containing 10% FBS with 100 μl of a peptide diluted stepwise at 37° C. for 48 to 72 hours. The survival rate of the cells was measured by using WST-8 solution (Cell Count Reagent SF; Nacalai Tesque, Inc.).

| Molecule | Anti-cancer activity (% relative to wild-type peptide) (Caki-1) | Decrease in cell survival rate (% relative to wild-type peptide) (Caki-1) | effect compared with the wild-type protein (summary of mutations) (cancer cells) | Cell Survival Rate (%) (U937) | Anti-cancer activity (% relative to wild-type peptide) (U937) | Decrease in cell survival rate (% relative to wild-type peptide) (U937) | other results |
| --- | --- | --- | --- | --- | --- | --- | --- |
| CC[C@H](C)[C@H](NC(=O)[C@H](CCCNC(=N)N)NC(=O)[C@H](C)NC(=O)[C@H](Cc1ccc(O)cc1)NC(=O)[C@H](C)NC(=O)[C@H](CCCCN)NC(=O)[C@H](CCCCN)NC(=O)[C@H](CCCCN)NC(=O)[C@H](Cc1c[nH]c2ccccc12)NC(=O)[C@H](CCCCN)NC(=O)[C@H](CCSC)NC(=O)[C@H](CCCNC(=N)N)NC(=O)[C@H](CCCNC(=N)N)NC(=O)[C@H](CC(N)=O)NC(=O)[C@H](CCC(N)=O)NC(=O)[C@H](Cc1ccccc1)NC(=O)[C@H](Cc1c[nH]c2ccccc12)NC(=O)[C@H](CC(C)C)NC(=O)[C@H](CCCCN)NC(=O)[C@@H](NC(=O)[C@H](CCC(N)=O)NC(=O)[C@@H](N)CCCNC(=N)N)[C@@H](C)CC)C(=O)NCC(=O)N[C@@H](CC(N)=O)C(=O)N[C@@H](CO)C(=O)N[C@@H](Cc1ccc(O)cc1)C(=O)N[C@@H](Cc1ccccc1)C(=O)N[C@@H](CCCCN)C(=O)O [Antp 15L-TPR] (H-RQIKLWFQNRRMKWKKKAYARIGNSYFK-OH; N-terminus and C-terminus assumed) | 73.75% | 31.29% | effective but with an effect lower than the wild-type protein |  |  |  |  |
| CC[C@H](C)[C@H](NC(=O)[C@H](CCCNC(=N)N)NC(=O)[C@H](C)NC(=O)[C@H](Cc1ccc(O)cc1)NC(=O)[C@H](C)NC(=O)[C@H](CCCCN)NC(=O)[C@H](CCCCN)NC(=O)[C@H](CCCCN)NC(=O)[C@H](Cc1c[nH]c2ccccc12)NC(=O)[C@H](CCCCN)NC(=O)[C@H](CCSC)NC(=O)[C@H](CCCNC(=N)N)NC(=O)[C@H](CCCNC(=N)N)NC(=O)[C@H](CC(N)=O)NC(=O)[C@H](CCC(N)=O)NC(=O)[C@H](Cc1ccccc1)NC(=O)[C@H](Cc1c[nH]c2ccccc12)NC(=O)[C@@H](NC(=O)[C@H](CCCCN)NC(=O)[C@@H](NC(=O)[C@H](CCC(N)=O)NC(=O)[C@@H](N)CCCCN)[C@@H](C)CC)[C@@H](C)CC)C(=O)NCC(=O)N[C@@H](CC(N)=O)C(=O)N[C@@H](CO)C(=O)N[C@@H](Cc1ccc(O)cc1)C(=O)N[C@@H](Cc1ccccc1)C(=O)N[C@@H](CCCCN)C(=O)O [Antp-R1K-TPR] (H-KQIKIWFQNRRMKWKKKAYARIGNSYFK-OH; N-terminus and C-terminus assumed) | 64.10% | 24.98% | effective but with an effect lower than the wild-type protein |  |  |  |  |
| CC[C@H](C)[C@H](NC(=O)[C@H](CCCNC(=N)N)NC(=O)[C@H](C)NC(=O)[C@H](Cc1ccc(O)cc1)NC(=O)[C@H](C)NC(=O)[C@H](CCCCN)NC(=O)[C@H](CCCCN)NC(=O)[C@H](CCCCN)NC(=O)[C@H](Cc1c[nH]c2ccccc12)NC(=O)[C@H](CCCCN)NC(=O)[C@H](CCSC)NC(=O)[C@H](CCCNC(=N)N)NC(=O)[C@H](CCCNC(=N)N)NC(=O)[C@H](CC(N)=O)NC(=O)[C@H](CCC(N)=O)NC(=O)[C@H](Cc1ccccc1)NC(=O)[C@H](Cc1c[nH]c2ccccc12)NC(=O)[C@@H](NC(=O)[C@H](CCCCN)NC(=O)[C@@H](NC(=O)[C@H](CC(N)=O)NC(=O)[C@@H](N)CCCNC(=N)N)[C@@H](C)CC)[C@@H](C)CC)C(=O)NCC(=O)N[C@@H](CC(N)=O)C(=O)N[C@@H](CO)C(=O)N[C@@H](Cc1ccc(O)cc1)C(=O)N[C@@H](Cc1ccccc1)C(=O)N[C@@H](CCCCN)C(=O)O [Antp Q2N-TPR] (H-RNIKIWFQNRRMKWKKKAYARIGNSYFK-OH; N-terminus and C-terminus assumed) | 88.97% | 52.02% | effect similar to that of the wild-type protein |  |  |  |  |
| RQIKIWFQNRRMKWKKKAYARAGNSYFK (Antp-TPR I6A peptide) [Antp-I6A] |  |  | effect higher than the wild-type protein | 7.48% | 120.54% | 310.88% | killing effect compared with the wild-type peptide (U937): increase in effect |
| RQIKIWFQNRRMKWKKKGYGRIGNYYYK (Antp-TPR A2G,A4G,S9Y,F11Y peptide) [Antp-A2G, A4G, S9Y, F11Y] |  |  |  | 21.14% | 102.73% | 109.90% | killing effect compared with the wild-type peptide (U937): increase in effect |
| RQIKIWFQNRRMKWKKKAYAAIGNSYFK (Antp-TPR R5A peptide) [Antp-R5A] |  |  | effective but with a lower effect than the wild-type protein | 40.24% | 77.85% | 57.74% |  |
| CC[C@H](C)[C@H](NC(=O)[C@H](CCCNC(=N)N)NC(=O)[C@H](C)NC(=O)[C@H](Cc1ccc(O)cc1)NC(=O)[C@H](C)NC(=O)[C@H](CCCCN)NC(=O)[C@H](CCCCN)NC(=O)[C@H](CCCCN)NC(=O)[C@H](Cc1c[nH]c2ccccc12)NC(=O)[C@H](CCCCN)NC(=O)[C@H](CCSC)NC(=O)[C@H](CCCNC(=N)N)NC(=O)[C@H](CCCNC(=N)N)NC(=O)[C@H](CC(N)=O)NC(=O)[C@H](CCC(N)=O)NC(=O)[C@H](Cc1ccccc1)NC(=O)[C@H](Cc1c[nH]c2ccccc12)NC(=O)[C@@H](NC(=O)[C@H](CCCCN)NC(=O)[C@@H](NC(=O)[C@H](CCC(N)=O)NC(=O)[C@@H](N)CCCNC(=N)N)[C@@H](C)CC)[C@@H](C)CC)C(=O)NCC(=O)N[C@@H](CC(N)=O)C(=O)N[C@@H](CO)C(=O)NCC(=O)NCC(=O)NCC(=O)O (H-RQIKIWFQNRRMKWKKKAYARIGNSGGG-OH) |  |  |  |  |  |  | cytotoxic activity / cell-killing effect (cancer cells): the cytotoxic activity was lower |
| CC[C@H](C)[C@H](NC(=O)[C@H](CCCNC(=N)N)NC(=O)[C@H](C)NC(=O)[C@H](Cc1ccc(O)cc1)NC(=O)[C@H](C)NC(=O)[C@H](CCCCN)NC(=O)[C@H](C)NC(=O)[C@@H](NC(=O)[C@H](CCC(N)=O)NC(=O)[C@H](CCCNC(=N)N)NC(=O)[C@H](CCCCN)NC(=O)[C@H](CCCCN)NC(=O)[C@H](Cc1c[nH]c2ccccc12)NC(=O)[C@H](CCCCN)NC(=O)[C@H](CCSC)NC(=O)[C@H](CCCNC(=N)N)NC(=O)[C@H](CCCNC(=N)N)NC(=O)[C@H](CC(N)=O)NC(=O)[C@H](CCC(N)=O)NC(=O)[C@H](Cc1ccccc1)NC(=O)[C@H](Cc1c[nH]c2ccccc12)NC(=O)[C@@H](NC(=O)[C@H](CCCCN)NC(=O)[C@@H](NC(=O)[C@H](CCC(N)=O)NC(=O)[C@@H](N)CCCNC(=N)N)[C@@H](C)CC)[C@@H](C)CC)[C@@H](C)CC)C(=O)NCC(=O)N[C@@H](CC(N)=O)C(=O)N[C@@H](CO)C(=O)N[C@@H](Cc1ccc(O)cc1)C(=O)N[C@@H](Cc1ccccc1)C(=O)N[C@@H](CCCCN)C(=O)O [Antp-TPR slong] (H-RQIKIWFQNRRMKWKKRQIAKAYARIGNSYFK-OH; N-terminus and C-terminus assumed) |  |  |  |  |  |  | killing effect compared with the wild-type peptide (Caki-1): retained the effect of wild-type peptide |
| CC[C@H](C)[C@H](NC(=O)[C@H](CCCCN)NC(=O)[C@@H](NC(=O)[C@H](CCC(N)=O)NC(=O)[C@@H](N)CCCNC(=N)N)[C@@H](C)CC)C(=O)N[C@@H](Cc1c[nH]c2ccccc12)C(=O)N[C@@H](Cc1ccccc1)C(=O)N[C@@H](CCC(N)=O)C(=O)N[C@@H](CC(N)=O)C(=O)N[C@@H](CCCNC(=N)N)C(=O)N[C@@H](CCCNC(=N)N)C(=O)N[C@@H](CCSC)C(=O)N[C@@H](CCCCN)C(=O)N[C@@H](Cc1c[nH]c2ccccc12)C(=O)N[C@@H](CCCCN)C(=O)N[C@@H](CCCCN)C(=O)N[C@@H](CCCCN)C(=O)N[C@@H](C)C(=O)N[C@@H](Cc1ccc(O)cc1)C(=O)N[C@@H](C)C(=O)N[C@@H](C)C(=O)N[C@@H](C)C(=O)NCC(=O)N[C@@H](CC(N)=O)C(=O)N[C@@H](CO)C(=O)N[C@@H](Cc1ccc(O)cc1)C(=O)N[C@@H](Cc1ccccc1)C(=O)N[C@@H](CCCCN)C(=O)O (H-RQIKIWFQNRRMKWKKKAYAAAGNSYFK-OH; N-terminus and C-terminus assumed) |  |  |  |  |  |  | cytotoxic activity / cell-killing effect (cancer cells): the cytotoxic activity was lower |
| RQIKIWFQNRRMKWKKRKFSAAIGYNKY (Antp-scramble peptide) [reference compound] |  |  |  | 95.30% | 6.13% | 24.39% |  |
